According to paper PMC9834298, “Prolyl-tRNA synthetase as a novel therapeutic target in multiple myeloma” (Blood Cancer Journal, 2023):

What was measured:
[1] = target: T1, human prolyl-tRNA synthetase (ProRS domain of GluProRS) (Homo sapiens, UniProt P07814); assay: TR-FRET ligand displacement with […] proline; crystal structure with proline; type: binding
T1 construct: gene EPRS1; recombinant human ProRS
T1 sequence (P07814 998-1512): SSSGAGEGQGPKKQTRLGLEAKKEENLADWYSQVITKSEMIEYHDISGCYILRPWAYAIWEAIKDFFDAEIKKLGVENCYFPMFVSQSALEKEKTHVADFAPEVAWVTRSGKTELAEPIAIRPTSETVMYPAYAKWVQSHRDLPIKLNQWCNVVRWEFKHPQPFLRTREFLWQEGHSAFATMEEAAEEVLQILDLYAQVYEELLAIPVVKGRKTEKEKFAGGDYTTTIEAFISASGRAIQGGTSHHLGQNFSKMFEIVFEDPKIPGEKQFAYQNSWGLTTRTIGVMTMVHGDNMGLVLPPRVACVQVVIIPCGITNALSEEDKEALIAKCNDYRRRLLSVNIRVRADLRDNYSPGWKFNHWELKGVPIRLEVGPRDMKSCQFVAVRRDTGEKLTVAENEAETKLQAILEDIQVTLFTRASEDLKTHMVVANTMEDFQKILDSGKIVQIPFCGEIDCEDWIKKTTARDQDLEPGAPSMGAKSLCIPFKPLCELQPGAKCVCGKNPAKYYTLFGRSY

[2] = target: T1, human prolyl-tRNA synthetase (ProRS domain of GluProRS); assay: TR-FRET ligand displacement with […] ATP; type: binding

## O=C(NC1Cc2ccccc2C1)c1nccnc1NC(=O)N1CCCCC1 [NCP26]
[1]
  Kd: 350 pM

## O=C(CC1NCCCC1O)Cn1cnc2cc(Br)c(Cl)cc2c1=O (centres unmarked) [HFG, Halofuginone]
[2]
  Kd: 190 pM
